Data published in ChEMBL document CHEMBL1138392, “Phenylalanyl-aminocyclophosphamides as model prodrugs for proteolytic activation: synthesis, stability, and stereochemical requirements for enzymatic cleavage” (Bioorg Med Chem Lett, 2007).

Key:
[1] = Stability in phosphate buffer assessed as hydrolysis at pH 7.4 after 3 days; type: physicochemical; settings: read-out: Activity
[2] = Stability in presence of alpha-chymotrypsin at 100 mM after 12 hrs; type: ADME; settings: 100000 µM
[3] = Stability assessed as hydrolysis half life in presence of alpha-chymotrypsin; type: ADME

SMILES | degraded at 72 h [1] | Activity [2] | half-life ([3]; alpha-chymotrypsin) | t1/2 [3]
N[C@@H](Cc1ccccc1)C(=O)N[C@H]1CCOP(=O)(N(CCCl)CCCl)N1 (some centres undefined) | < 10% | Not Active | – | –
N[C@@H](Cc1ccccc1)C(=O)N[C@@H]1CCOP(=O)(N(CCCl)CCCl)N1 (some centres undefined) | < 10% | Not Active | – | –
O=C(N[C@@H](Cc1ccccc1)C(=O)N[C@@H]1CCOP(=O)(N(CCCl)CCCl)N1)OCc1ccccc1 (some centres undefined) | – | Active | > 12 h | –
O=C(N[C@@H](Cc1ccccc1)C(=O)N[C@H]1CCOP(=O)(N(CCCl)CCCl)N1)OCc1ccccc1 (stereo in doubt; cis) | – | Active | – | 0.333 h
O=C(N[C@@H](Cc1ccccc1)C(=O)N[C@H]1CCOP(=O)(N(CCCl)CCCl)N1)OCc1ccccc1 (stereo in doubt; trans) | – | – | – | 8.9 h
